Measured values reported in a melting point compilation (Tetko et al.; mined from patent text by program, amines drawn as free bases though some values may be those of a salt).

Row | Compound | melting point
1 | NCC1Cc2cccc(-c3cccc(Cl)c3)c2O1 (stereo not given) | 150 to 154 °C
2 | OCc1cnn2ccc3c(c12)CCO3 | 152 to 154 °C
3 | N#Cc1ccc(NC(=O)c2ccc(S(=O)(=O)N3CCc4cc(Cl)ccc43)cc2)c(-c2n[nH]c(=O)o2)c1 | 262 to 264 °C
4 | O=Cc1cc2ccsc2c2ccccc12 | 96 to 96.5 °C
5 | Cc1nnc(-c2ccc3occ(-c4cnn(Cc5ccccc5)c4)c3n2)o1 | 194 to 195 °C
6 | COc1cc(C)cc(OC)c1N(C)C(C)=O | 160 to 161 °C
7 | CC(=O)NC[C@H]1CN(c2cc(F)c(N3CCN(CCO)CC3)c(F)c2)C(=O)O1 | 172 to 174 °C
8 | CSc1sc(-c2cncs2)c2c1C(=O)CC(C)(C)C2 | 138 to 140 °C
9 | CCC(=O)SCC(CC(=O)c1ccc(Br)cc1)C(=O)O (stereo not given) | 122 to 123 °C
10 | COC(=O)c1cc2ncnn2nc1NCCCN1CCC(OC(c2ccccc2)c2ccccc2)CC1 | 120 to 122 °C
11 | CCCCN(C(=O)c1ccccc1)C1CC(C)(C)N(OC(=O)c2ccccc2)C(C)(C)C1 | 155 to 159 °C
12 | Clc1nc(Cl)c2[nH]nnc2n1 | > 260 °C
13 | Cn1c(C(=O)N[C@H]2CCCC[C@H]2C(=O)N[C@@H](CCC(N)=O)C(N)=O)cc2ccccc21 | 234 to 235 °C
14 | c1ccc(-n2nnc3c4ccccc4c(OCc4ccccn4)nc32)cc1 | 147 to 150 °C
15 | C#C[C@@]1(O)[C@@H](COC(=O)c2ccc(Cl)cc2)OC(O)[C@@H]1O (stereo not given in full) | 116 to 118 °C
16 | O=C(Nc1cccc(-c2ccnc3c(C(=O)c4cccs4)cnn23)c1)c1ccccn1 | 198 to 200 °C
17 | CCOC(=O)C1[C@H]2O[C@@H]3COC(C)(C)O[C@H]3C(=NO)[C@@H]12 (stereo not given in full) | 210 to 213 °C
18 | CCc1cnc(N2CCN(c3nc(-c4ccccc4)nc4ccccc34)CC2)nc1 | 137 to 138 °C
19 | CC1(C)NC(=O)C2CN(CCCC(c3ccc(F)cc3)c3ccc(F)cc3)CCN21 (stereo not given) | 148 °C
20 | CCCCCCCC/C(=C\C=C\C(=O)O)c1ccc(OC)cc1 | 109 to 110 °C
21 | Cc1cc2nccn2nc1OCC(C)(C)CCCCS(N)(=O)=O | 169 to 170 °C
22 | CN(C)C=NC(=Nc1ccccc1)N1CCOCC1 | 109 to 112 °C
23 | CNc1nc(Cl)nc2c(SC)ncnc12 | 233 to 234 °C
24 | O=C(O)CCCNC(=O)c1ccccc1NC(=O)c1cccc(Cl)c1 | 165 to 166 °C

Row | Compound | melting point
25 | Cc1cc(NC2=NCCN2)n(-c2cccc3ccccc23)n1 | 221 to 224 °C
26 | O=C1c2ccccc2C(=O)N1CCCOc1cccc2c(N3CCCCC3)nccc12 | 146 to 147 °C
27 | CCOC(=O)N1CCC(SC(c2ccccc2)c2ccccc2)CC1 | 70 to 71 °C
28 | c1cc(-c2ccoc2)cc(-n2cnc3cc(-c4ccoc4)ccc32)c1 | 149 to 150 °C
29 | O=C(c1ccc(-c2ccc(=O)[nH]n2)cc1)N1CCC[C@H]1CN1CCCC1 | 62 to 66 °C
30 | C=CCc1cc(Nc2ccn(-c3ccccc3)n2)cc(CC=C)c1OC(C)=O | 110 to 111 °C
31 | N#Cc1cc(C#N)cc(Oc2c(C3CC3)nn(CCO)c2C2CC2)c1 | 115 to 117 °C
32 | Clc1nc(C2CC2)nc(N2CCOCC2)n1 | 99 to 100 °C
33 | Cc1ccc(NC(=O)CCCC2CCCCC2)cc1NC(=O)c1ccc(O)cc1 | 159 to 160 °C
34 | CCC1C(=O)Oc2c(Oc3ccccc3Cl)cccc21 (stereo not given) | 78 to 79 °C
35 | O=C1C=C(c2c(Br)cc(Br)cc2Br)C(=O)N1 | 140 to 143 °C
36 | Cc1cccc(Nc2ccc(-c3ccccc3)cc2)c1 | 95 °C
37 | CCCCNC(=O)[C@H](C)C[C@H](O)[C@H](CC1CCCCC1)NC(=O)[C@H](Cc1cscn1)NC(=O)[C@@H](CC(=O)N1CCOCC1)Cc1ccccc1 | 162 to 163 °C
38 | COc1ccccc1-c1ccccc1C1=NC(C)(C)CO1 | 129 to 131 °C
39 | O=C1c2ccccc2C(=O)N1OCCCC#Cc1ccc(F)cc1 | 85 to 88 °C
40 | O=CC1=Cc2cc(OCc3ccccc3)ccc2OC1 | 112 to 114 °C
41 | CCS(=O)(=O)CCC(=O)NNC(=O)N1Cc2ccccc2Oc2ccc(O)cc21 | 191 to 194 °C
42 | Cc1cc(Cl)c(Cl)cc1NC(=O)C1(C(=O)O)CC1 | 248 to 251 °C
43 | CN(C)C1=C(Cl)C(=O)NC1=Nc1ccccc1 | 135 to 138 °C
44 | Nc1cc(C(=O)OCCN2CCCCC2)c2oc(-c3ccccc3)cc2c1 | 126 to 128 °C
45 | Cc1cccc2c(-c3ccc(Cl)cc3)onc12 | 134 to 136 °C
46 | COC(=O)c1c(C(=O)OC)c(-c2ccccc2)c(C(=O)O)c(C(=O)O)c1-c1ccccc1 | 196 to 198 °C
47 | O=C1C(=Cn2ccnc2)C(c2ccc(Cl)cc2)c2ccc(Cl)cc21 (stereo not given) | 204 to 205 °C
48 | CC(C)[C@H](NC(=O)CC[C@H](C)CNC(=O)Cc1ccccc1)[C@@H](O)c1c(-c2ccccc2)c1=O | 152 to 154 °C

Row | Compound | melting point
49 | COc1cc2c(Nc3ccc(Sc4nccn4C)c(Cl)c3)c(C#N)cnc2cc1OCCCN1CCC(N2CCCC2)CC1 | 196 to 198 °C
50 | CCCCCCCCCCNC(=O)c1ccc(C(=O)NCCCCCCCCCC)c(N(CC(=O)OC)CC(=O)OC)c1 | 76 to 78 °C
51 | O=C(c1ccccc1)C(OCCN1CCCCC1)c1ccccc1 (stereo not given) | 53 °C
52 | CC(C)[C@]1(c2ccccc2OCC#CCCl)Sc2ccccc2N(C)C1=O | 136 °C
53 | CC(C)OC(=O)NC(=O)C(c1ccccc1)c1ccccc1 | 122 to 124 °C
54 | Cc1ccc(C(=O)c2ccccc2C2=NCCN2C(C)C)cc1 | 87 to 89 °C
55 | CC(C)(C)OC(=O)c1ncn2c1C1CCCN1C(=O)c1cnccc1-2 (stereo not given) | 217 to 218 °C
56 | CCCCCCCCCCN(O)C(=O)N(C)C | 44 to 45 °C
57 | COc1ccc2sc(C3=C(C(C)(C)C)C(C)(C)CO3)cc2c1 | 58 to 59 °C
58 | CC(C)(C)OC(=O)N1CCN(CCc2ccc(F)cc2)CC1 | 68 to 70 °C
59 | NC(=O)NCCS(=O)Cc1ccccc1 (stereo not given) | 110 °C
60 | Oc1cccc2c3ccccc3n(C3CCCCO3)c12 (stereo not given) | 137 to 140 °C
61 | CC=CC1OC(=O)c2ccc(N)cc21 (stereo not given) | 125 to 130 °C
62 | CC(C)C(=O)CC(=O)c1ccc(C(=O)CC(=O)C(C)C)cc1 | 97 to 97.5 °C
63 | O=C1NC[C@@H]2CCCC[C@@H]12 (relative stereo) | 85 to 88 °C
64 | CCC(=NO)c1ccc(Oc2cc(F)cc([C@@]3(OC)CCO[C@@H]3C)c2)cc1 (racemic) | 94 to 96 °C
65 | O=C(CCCCCS(=O)c1ccc(-c2ccc(Cl)cc2)cc1)NO (stereo not given) | 108 to 110 °C
66 | CSC(=S)NN=Cc1ccccn1 | 171 to 173 °C
67 | N#Cc1c(N2CCCCC2)cc(-c2ccccc2)c2c1Cc1ccccc1-2 | 140 to 141 °C
68 | Clc1cc(Cl)c2oc(Cl)nc2c1 | 140 to 142 °C
69 | O=C(O)Cc1cccc(C(=O)c2cccs2)c1Cl | 112 °C
70 | CON=C(C)c1ccc(-c2ccc(C(=O)n3ccc4cc(OC)c(OCCN(C)C)cc43)cc2)c(C)c1 | 120 to 121 °C

Other lines, results leading:

Row | melting point | Compound
71 | 196 °C | CCOC(=O)c1c(N2CCN(C=O)CC2)c2cc(C)ccc2n(Cc2ccccc2)c1=O
72 | 105 to 109 °C | CCOC(=O)C=Cc1ccc(NC(=O)OC(C)(C)C)cc1
73 | > 250 °C | CCOC(=O)c1nc2c(=O)[nH]c3cc(C(F)(F)F)ccc3n2c1C
74 | 100 to 101 °C | CCOCc1cc2cc(Cl)ccc2oc1=O
75 | 139 °C | Cc1ccccc1-c1nc2ccccc2n1Cc1c(F)cccc1F
76 | 181 to 182 °C | CCOC(=O)c1ccc(NC(=O)c2ccc3c(c2)OCC(C)(C)CO3)cc1
77 | 102 to 105 °C | COc1ccc2cc(CC(=O)N3CC=C(c4cccc(C(F)(F)F)c4)CC3)ccc2c1
78 | 66 to 67 °C | CC(C)(C)OC(=O)c1ccc(Cl)c([N+](=O)[O-])c1
79 | 248 to 249 °C | Cc1nnc(-c2sc(N3CCN(Cc4ccc(F)cc4)C3=O)nc2C)[nH]1
80 | 161 to 162 °C | Cc1nc(-c2cc3cccc(N(C)S(=O)(=O)c4cccs4)c3[nH]2)cs1
81 | 176 to 178 °C | NC(=O)/C=C/c1cc2c(Oc3ccc(Cl)cc3)cncc2s1
82 | 114 to 116 °C | COc1ccc2nc(C)n(-c3ccccc3)c2n1
83 | 33 °C | COCc1ccc(C(=O)OC)cn1
84 | 100 °C | CCCS(=O)(=O)c1ccc2c(c1)C(=O)CC2
85 | 213 to 215 °C | Cc1ccc2nc3c(nc2c1)SC(C#N)=C(C#N)S3
86 | 116 to 118 °C | CCN1c2ncccc2C(=O)N(C)c2ccc(OC)nc21
87 | 98.8 to 99.4 °C | COCOc1cc(C(F)(F)F)ccc1-c1cc(Oc2ccc3cccnc3c2)ncn1
88 | 100 to 101 °C | CCOC(=O)C=Cc1c(OC)cncc1OC

Row | melting point | Compound
89 | 171 to 173 °C | CN(C(CCn1c(=O)cc(Cl)[nH]c1=O)C(=O)NO)S(=O)(=O)c1ccc(Oc2ccc(Cl)cc2)cc1 (stereo not given)
90 | 191 to 192 °C | CCCCc1nc2ccccc2n1Cc1ccc(C(=O)O)c(C)c1
91 | 142 to 143 °C | CCCCC(O)(COc1ccc(C(=O)O)c(O)c1)c1ccc2c(c1)C(C)(C)CCC2(C)C (stereo not given)
92 | 118 to 121 °C | CCOC(=O)c1cnn(-c2ccc(C(F)(F)F)cc2[N+](=O)[O-])c1N
93 | 205 to 206 °C | COc1cc(C=C2N=C(C)OC2=O)ccc1OC(C)=O
94 | 127 to 128 °C | Cc1cc(C)c(-c2cn(C)c3nc(N(C)C)n(C)c(=O)c23)c(C)c1
95 | 106 to 107 °C | CCOc1ccc(CO)c(Oc2ccc(Cl)cc2Cl)n1
96 | 115 to 117 °C | CCOC(=O)COc1cc2c(C)csc2c(Cl)c1Cl
97 | 69 to 70 °C | COC(=O)c1cnc(C(=O)OC)c2ccccc12
98 | > 300 °C | NC(=O)c1cc(-c2ccncc2)c[nH]c1=O
99 | 160 to 163 °C | O=C1NCCc2c(-c3cccc(-c4ccccc4)c3)[nH]c3cccc1c23
100 | 126 to 127 °C | CCN1C(=O)Cc2cc(C=O)ccc21
101 | 146 to 148 °C | COC(=O)c1ccc(OCC2CN(c3ccc(Cl)cc3)C(=O)O2)cc1 (stereo not given)
102 | 267 °C | CNc1nc(Nc2ccc(Cl)c(Cl)c2)ncc1NC(C)=O
103 | 219 to 220 °C | CC1(C)OC(=O)Nc2ccc(/C(=C/C(N)=O)c3ccccc3)cc21
104 | 252 to 254 °C | O=C(O)C1=Cc2cc(-c3ccc(OC(F)(F)F)cc3)ccc2OCC1
105 | 179 to 180 °C | Cc1cc(C(=O)CS(C)(=O)=O)cc(C)c1N
